“And” between values parts separate entries of the source, which are not always exact repeats. Equal entries are not always repeated. Inconclusive results and toxic doses are left out. Rule for the calls: active = survival T/C of 150% or more; inactive = T/C below 125% in these data.
System: P388 leukemia ip, CD2F1 mice, survival T/C
Experiment: NCI In Vivo Anticancer Drug Screen. Data for tumor model P388 Leukemia (intraperitoneal) in CD2F1 (CDF1) mice
Conditions: endpoint: median survival time, higher = longer survival
How it was run: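 Mice carrying the transplanted tumor received test compound or vehicle. Survival was recorded in each group, and the value is the treated-group measurement divided by that of the vehicle-treated control group.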

[1] = dose: 6.25 mg/kg/injection, schedule: Q01DX009 (ip), vehicle: saline with Tween-80
[2] = dose: 12.5 mg/kg/injection, schedule: Q01DX009 (ip), vehicle: saline with Tween-80
[3] = dose: 25.0 mg/kg/injection, schedule: Q01DX009 (ip), vehicle: saline with Tween-80
[4] = dose: 50.0 mg/kg/injection, schedule: Q01DX009 (ip), vehicle: saline with Tween-80
[5] = dose: 50.0 mg/kg/injection, schedule: Q01DX005 (ip), vehicle: saline with Tween-80
[6] = dose: 100.0 mg/kg/injection, schedule: Q01DX005 (ip), vehicle: saline with Tween-80
[7] = dose: 200.0 mg/kg/injection, schedule: Q01DX005 (ip), vehicle: saline with Tween-80
[8] = dose: 100.0 mg/kg/injection, schedule: Q01DX009 (ip), vehicle: saline with Tween-80

Measured: T/C

O=[N+]([O-])c1ccc(N2CC2)c2c1no[n+]2[O-]
inactive: dose: 7.5 mg/kg/injection, schedule: Q04DX003 (ip), vehicle: saline with Tween-80 101 % of control | dose: 15.0 mg/kg/injection, schedule: Q04DX003 (ip), vehicle: saline with Tween-80 99 % of control | dose: 30.0 mg/kg/injection, schedule: Q04DX003 (ip), vehicle: saline with Tween-80 100 % of control | dose: 60.0 mg/kg/injection, schedule: Q04DX003 (ip), vehicle: saline with Tween-80 100 % of control

O=C1C(Br)=C(Br)C(=O)C1(Br)Br
inactive: [1] 118 % of control | dose: 6.25 mg/kg/injection, schedule: Q04DX003 (ip), vehicle: saline with Tween-80 100 % of control | dose: 12.5 mg/kg/injection, schedule: Q04DX003 (ip), vehicle: saline with Tween-80 100 % of control | dose: 25.0 mg/kg/injection, schedule: Q04DX003 (ip), vehicle: saline with Tween-80 120 % of control

NNC(=O)CCCCCCCCCCCCCCCO
inactive: [2] 97 % of control | [3] 88 % of control | [4] 88 % of control

CCOC1=NC2C(O1)C1C3C2C13 (stereo not drawn)
inactive: [5] 103 % of control | [6] 105 % of control | [7] 105 % of control

O=C(O)/C=C(/CC(=O)O)c1ccc(O)cc1
inactive: dose: 60.0 mg/kg/injection, schedule: Q01DX005 (ip), vehicle: Klucel (hydroxypropylcellulose) (HPC) 97 % of control | dose: 120.0 mg/kg/injection, schedule: Q01DX005 (ip), vehicle: Klucel (hydroxypropylcellulose) (HPC) 102 % of control | dose: 240.0 mg/kg/injection, schedule: Q01DX005 (ip), vehicle: Klucel (hydroxypropylcellulose) (HPC) 100 % of control

C=C1CC2(CC3C4CC3CC2C4)OC1=O (stereo not drawn)
inactive: dose: 100.0 mg/kg/injection, schedule: Q01DX001 (ip), vehicle: saline 98 % of control | dose: 200.0 mg/kg/injection, schedule: Q01DX001 (ip), vehicle: saline 99 % of control | dose: 400.0 mg/kg/injection, schedule: Q01DX001 (ip), vehicle: saline 100 % of control

OCC1OC(n2ncc3ccccc32)C(O)C1O (stereo not drawn)
inactive: [1] 97 % of control | [2] 92 % of control | [3] 106 % of control | dose: 32.0 mg/kg/injection, schedule: Q01DX002 (ip), vehicle: saline with Tween-80 114 % of control and 90 % of control | [4] 106 % of control | dose: 64.0 mg/kg/injection, schedule: Q01DX002 (ip), vehicle: saline with Tween-80 106 % of control | [8] 100 % of control | dose: 128.0 mg/kg/injection, schedule: Q01DX002 (ip), vehicle: saline with Tween-80 112 % of control and 116 % of control

CC1(C)OCC(C2OC3OC(C)(C)OC3C2N2CCC(O)O2)O1 (stereo not drawn)
inactive: dose: 97.75 mg/kg/injection, schedule: Q04DX002 (ip), vehicle: saline 103 % of control | dose: 195.5 mg/kg/injection, schedule: Q04DX002 (ip), vehicle: saline 109 % of control | dose: 391.0 mg/kg/injection, schedule: Q04DX002 (ip), vehicle: saline 105 % of control

CC1(C)CN(C(C)(C)C)CN2C1OCC2(C)C (stereo not drawn)
inactive: [4] 101 % of control | [8] 112 % of control | dose: 200.0 mg/kg/injection, schedule: Q01DX009 (ip), vehicle: saline with Tween-80 112 % of control

CCCCN1CC(=O)N2CCCC(c3ccccc3)N2C(=O)C1 (stereo not drawn)
inactive: [5] 103 % of control | [6] 105 % of control | [7] 103 % of control

Cc1cc(=O)n(-c2ccc(S(=O)(=O)N=C(N)N)cc2)c(C)c1C(=O)O
inactive: [5] 102 % of control | [6] 106 % of control | [7] 103 % of control

COc1cccc(OC)c1C(=O)Nc1cccc(NC(=O)c2c(OC)cccc2OC)n1
inactive: [5] 95 % of control | [6] 93 % of control | [7] 93 % of control

— PubChem BioAssay AID330 (DTP/NCI, 2004)
